By IC50 is commonly meant the concentration that gives 50% inhibition.

One experiment has as its system SET7.
Assay: not given
The following applies: SET7, previous research of the authors; cited from earlier work.
Consider `COC(=O)c1c(N)sc(C(=O)Nc2cccc([N+](=O)[O-])c2)c1C` [DC-S238], for which the IC50 is 4.9 µM.

Turning to `CCOC(=O)c1c(N)sc(C(=O)Nc2cccc([N+](=O)[O-])c2)c1C` [DC-S239], the IC50 is 4.6 µM.

The same experiment, now with this note: SET7; cited from earlier work.
As for `O=C([C@@H](Cc1cccc(C(F)(F)F)c1)NS(=O)(=O)c1cc(F)c2c(c1)CCNC2)N1CCCC1` [(R)-PFI-2], the concentration for half-maximal inhibition (IC50) was 0.002 µM.

For a further experiment, the target named is T1, SET7 (Homo sapiens, UniProt Q8WTS6).
T1 sequence (Q8WTS6 1-366): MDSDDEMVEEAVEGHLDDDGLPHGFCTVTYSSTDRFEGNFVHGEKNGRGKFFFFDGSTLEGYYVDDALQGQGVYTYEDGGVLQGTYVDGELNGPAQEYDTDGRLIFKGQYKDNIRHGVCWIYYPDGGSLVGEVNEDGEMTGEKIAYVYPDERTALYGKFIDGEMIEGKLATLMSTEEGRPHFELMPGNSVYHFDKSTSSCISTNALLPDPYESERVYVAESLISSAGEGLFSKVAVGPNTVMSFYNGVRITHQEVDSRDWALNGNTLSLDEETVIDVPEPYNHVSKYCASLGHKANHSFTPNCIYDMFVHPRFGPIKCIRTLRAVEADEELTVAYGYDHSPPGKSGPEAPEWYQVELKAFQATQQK
Briefly: AlphaLISA SET7 inhibition assay. Type of experiment: biochemical. The following applies: AlphaLISA assay, SAR discussion. How it is done:
AlphaLISA assays were applied to determine the inhibitory activity targeting SET7. The purified SET7 protein was incubated in modified Tris buffer in 384-well plates (Perkin Elmer, Cat. No. 6007299, Waltham, MA, USA) at room temperature for 15 min. The compounds were transferred to the assay plate using Echo in 100% DMSO, and substrate solution was added to each well to start the reaction. Acceptor and donor beads were added and incubated for 60 min at room temperature, shielded from light. The endpoint was evaluated with EndSpire in Alpha mode. The experimental data was fitted in GraphPad Prism 5 to obtain inhibition values using the equation as follows:(1) Inhibition %= Max−Siginal/Max−Min×100%
As for `COc1cc(/C=N/NC(=O)c2ccc(-c3ccccc3)cc2)c([N+](=O)[O-])cc1OC` [DC-S305], the “activity against SET7 (in words)” value is reported as “no activity”.

The same experiment, now with this note: AlphaLISA assay, SET7.
Compound `O=C(NN=Cc1cc2c(cc1Br)OCO2)c1ccc([N+](=O)[O-])cc1` [DC-S351] returned an IC50 of 3.4 µM.

On to `O=C(CCC(=O)N/N=C/c1cc([N+](=O)[O-])ccc1Cl)NCc1ccccc1` [DC-S314], for which the IC50 was determined as 46 µM. With `COc1cc(/C=N/NC(=O)c2ccc(-c3ccccc3)cc2)ccc1OC(C)=O` [DC-S306], the IC50 turned out to be 20 µM.

`O=C(NNC(=O)c1ccc([N+](=O)[O-])cc1)c1ccc(-c2ccccc2)cc1` [DC-S334] returned an IC50 of 9.9 µM.

The compound `O=C(NN=Cc1ccc(-c2ccccc2Cl)o1)c1ccc([N+](=O)[O-])cc1` [DC-S364] returned an IC50 of 3.7 µM.

Staying with this experiment, now noted: AlphaLISA assay, SET7, 100 μM; read-out: Inhibition Ratio at 100 μM/%.
For the compound `O=C(NN=Cc1ccccc1OC(=O)c1ccc(Cl)cc1)c1ccc([N+](=O)[O-])cc1` [DC-S358], the inhibition at 100 µM is 6%.

Turning to `Cc1cccc(/C=N/NC(=O)c2ccc(-c3ccccc3)cc2)c1` [DC-S309], the inhibition at 100 µM was -5%. On the same count and under the same terms, the figure for `O=C(NNC(=O)C(F)(F)F)c1ccc(-c2ccccc2)cc1` [DC-S342] is -13%; for `COc1ccc(-c2ccc(C=NNC(=O)c3ccc([N+](=O)[O-])cc3)o2)cc1Cl` [DC-S360] it is 4%.

Regarding `O=C(NN=Cc1ccccc1OCc1cccc(Br)c1)c1ccc([N+](=O)[O-])cc1` [DC-S363], the inhibition at 100 µM is -15%.

Take `Cc1c(C=NNC(=O)c2ccc([N+](=O)[O-])cc2)cnn1C` [DC-S348]: the inhibition at 100 µM was -11%. Same read-out and setting: the figure for `O=C(NN=Cc1ccc([N+](=O)[O-])cc1)c1cccc(Cl)c1` [DC-S367] is -1%; for `O=C(N/N=C/c1cccc(Cl)c1Cl)c1ccc(-c2ccccc2)cc1` [DC-S312] it is -3%.

As for `O=C(NN=Cc1ccc[nH]1)c1ccc([N+](=O)[O-])cc1` [DC-S347], the inhibition at 100 µM was determined as 10%.

Take `O=C(NN=Cc1cccc(Cl)c1)c1ccc([N+](=O)[O-])cc1` [DC-S345]: the inhibition at 100 µM was determined as 29%. Turning to `O=C(N/N=C/c1cc([N+](=O)[O-])ccc1Cl)c1ccc(O)cc1` [DC-S320], the inhibition at 100 µM is 11%. On to `CCOc1ccc(/C=N/NC(=O)c2ccc(-c3ccccc3)cc2)c(OCC)c1` [DC-S310], for which the inhibition at 100 µM is -6%.

Consider `O=C(N/N=C/c1cc([N+](=O)[O-])ccc1Cl)c1cccc(O)c1` [DC-S316], for which the inhibition at 100 µM turned out to be 37%. Same read-out and setting: the figure for `O=C(NNC(=O)c1cccc([N+](=O)[O-])c1)c1ccc(-c2ccccc2)cc1` [DC-S335] is 12%. As to `COc1cc(/C=N/NC(=O)c2ccc(-c3ccccc3)cc2)c([N+](=O)[O-])cc1OC` [DC-S305], the inhibition at 100 µM is -5%. As for `O=C(NNC(=O)c1ccccc1C(=O)O)c1ccc(-c2ccccc2)cc1` [DC-S341], the inhibition at 100 µM is -10%. Still for that read-out and setting: then `COc1ccc(C(=O)NN=Cc2ccc([N+](=O)[O-])cc2)cc1OC` [DC-S365], with 10%; and `COc1ccc(/C=N/NC(=O)c2ccc(-c3ccccc3)cc2)cc1O` [DC-S307], with 8%. Still for that read-out and setting: the figure for `COc1cc(C=NNC(=O)c2ccc([N+](=O)[O-])cc2)ccc1OC(C)=O` [DC-S362] is -4%; for `O=C(NN=Cc1c(OC(=O)c2ccc(Cl)cc2)ccc2ccccc12)c1ccc([N+](=O)[O-])cc1` [DC-S359] it is 5%; for `COc1ccc(C=NNC(=O)c2ccc([N+](=O)[O-])cc2)c2ccccc12` [DC-S357] it is 13%.

Turning to `O=C(NN=Cc1ccc([N+](=O)[O-])cc1)c1ccc(CSc2ccccc2)cc1` [DC-S366], the inhibition at 100 µM was 9%. Consider `Nc1ccccc1C(=O)N/N=C/c1cc([N+](=O)[O-])ccc1Cl` [DC-S319], for which the inhibition at 100 µM was 14%. Still for that read-out and setting: then `O=C(NN=Cc1cc2c(cc1Br)OCO2)c1ccc([N+](=O)[O-])cc1` [DC-S351], with 96%; and `O=C(CCC(=O)N/N=C/c1cc([N+](=O)[O-])ccc1Cl)NCc1ccccc1` [DC-S314], with 77%; and `O=C(NN=Cc1cn(Cc2ccc(Cl)cc2Cl)c2ccccc12)c1ccc([N+](=O)[O-])cc1` [DC-S350], with 6%.

Regarding `O=C(NN=Cc1ccc(Cl)s1)c1ccc([N+](=O)[O-])cc1` [DC-S344], the inhibition at 100 µM came to 32%. Same read-out and setting: the figure for `COc1cc(/C=N/NC(=O)c2ccc(-c3ccccc3)cc2)ccc1OC(C)=O` [DC-S306] is 94%; for `O=C(NN=Cc1cc([N+](=O)[O-])ccc1N1CCCCC1)c1ccc([N+](=O)[O-])cc1` [DC-S354] it is 35%. Still for that read-out and setting: the figure for `Nc1ccc(C=NNC(=O)c2ccc([N+](=O)[O-])cc2)cc1` [DC-S346] is 21%; for `O=C(NNC(=O)c1ccc([N+](=O)[O-])cc1)c1ccc(-c2ccccc2)cc1` [DC-S334] it is 96%; for `COc1ccc(C(=O)NNC(=O)c2ccc(-c3ccccc3)cc2)cc1` [DC-S336] it is 49%. With `COc1ccc(/C=N/NC(=O)c2ccc(-c3ccccc3)cc2)c(OC)c1Br` [DC-S308], the inhibition at 100 µM was 7%.

`O=C(NN=Cc1ccccc1OC(=O)c1ccc([N+](=O)[O-])cc1)c1ccc([N+](=O)[O-])cc1` [DC-S355]: the inhibition at 100 µM turned out to be 20%.

For `O=C(NNC(=O)c1cccc(Cl)c1)c1ccc(-c2ccccc2)cc1` [DC-S338], the inhibition at 100 µM stood at 1%. Same read-out and setting: the figure for `O=C(N/N=C/c1c(Cl)cccc1Cl)c1ccc(-c2ccccc2)cc1` [DC-S313] is -6%; for `O=C(NN=Cc1c[nH]nc1-c1ccc(Cl)cc1)c1ccc([N+](=O)[O-])cc1` [DC-S356] it is 17%; for `O=C(N/N=C/c1cc([N+](=O)[O-])ccc1Cl)c1ccc(O)cc1O` [DC-S321] it is 9%. For the compound `COc1ccc(C=NNC(=O)c2ccc([N+](=O)[O-])cc2)cc1` [DC-S353], the inhibition at 100 µM was determined as 35%. Regarding `O=C(NN=Cc1ccc(-c2ccccc2Cl)o1)c1ccc([N+](=O)[O-])cc1` [DC-S364], the inhibition at 100 µM amounted to 54%.

With `O=C(CCc1ccccc1)NNC(=O)c1ccc(-c2ccccc2)cc1` [DC-S340], the inhibition at 100 µM was -6%.

`O=C(N/N=C/c1cc([N+](=O)[O-])ccc1Cl)C(c1ccccc1)c1ccccc1` [DC-S315]: the inhibition at 100 µM was determined as 46%. Regarding `COc1cc(OC)c(C=NNC(=O)c2ccc([N+](=O)[O-])cc2)cc1Br` [DC-S352], the inhibition at 100 µM was 39%.

Take `O=C(NN=Cc1cc2c(cc1[N+](=O)[O-])OCO2)c1ccc([N+](=O)[O-])cc1` [DC-S349]: the inhibition at 100 µM is -1%.

`O=C(N/N=C/c1ccc(Cl)c([N+](=O)[O-])c1)c1ccc(-c2ccccc2)cc1` [DC-S304]: the inhibition at 100 µM was 44%. The same measure, in the same setting: the figure for `COc1ccc2ccccc2c1C=NNC(=O)c1ccc([N+](=O)[O-])cc1` [DC-S361] is -1%. On the same count and under the same terms, the figure for `O=C(NNC(=O)c1ccc(-c2ccccc2)cc1)c1ccccc1` [DC-S337] is 1%; for `O=C(NNC(=O)c1ccc(-c2ccccc2)cc1)c1ccc(F)cc1` [DC-S339] it is -6%; for `COC(=O)N/N=C/c1cc([N+](=O)[O-])ccc1Cl` [DC-S318] it is 17%.

For a further experiment, the target named is T1, SET7. Kind of experiment: 3H-labeled radioisotope methylation assay. Format: biochemical. The note with it: 3H radioactive methylation assay. The protocol:
As for ^3Hradioactive methylation assay, SAH was used as the reference compound and the compounds were tested in 10 concentrations in duplicate in modified Tris buffer (1× assay buffer). The following materials were purchased: SET7 (Enzo, Cat. No. ALX-201-178, New York, NY, USA), [^3H]-SAM (PerkinElmer Inc., Lot. No. 1790854), SAH (Sigma, Cat. No. A9384-25MG, St. Louis, MO, USA) and 384-well Flashplate (Perkin Elmer, Cat. No. SMP410A001PK,). The compounds were transferred to the assay plate by Echo 550 with 3-fold dilution in 100% DMSO where the final DMSO concentration is 1%. Then the enzyme solution was transferred to the assay plate and 1× assay buffer was transferred for low control. After 15 min incubation at room temperature, peptide and [^3H]-SAM mix solution was transferred to each well to start the reaction. The cold SAM in 1× buffer was added to each well to stop the reaction after 60 min incubation at room temperature. 25 μL of the whole reaction system per well was transferred to Flashplate which was washed with dH2O and 0.1% Tween-20 for three times after 60 min incubation. The data was read on Microbeta. All the inhibition assays are performed in duplicate.
`Nc1ncnc2c1ncn2[C@@H]1O[C@H](CSCC[C@H](N)C(=O)O)[C@@H](O)[C@H]1O` [SAH, reference compound]: the IC50 was 5.4 µM.

The record behind these values is PMC6017732, “Identification and Characterizations of Novel, Selective Histone Methyltransferase SET7 Inhibitors by Scaffold Hopping- and 2D-Molecular Fingerprint-Based Similarity Search” (Molecules : A Journal of Synthetic Chemistry and Natural …, 2018).
